# In patent US20170253601A1, “Substituted Pyrrolidine Compounds” (EPIZYME, INC., priority 2014, published 2017):
# Molecular target: T1, SMYD2 (Homo sapiens, UniProt Q9NRG4)
# T1 construct: Full length SMYD2 (NP 064582.2) was cloned; His6 (N, cleaved yes); FLAG (N); made in house; host or cells: Sf9 insect cells
# Assay: SMYD2 Biochemical Assay (3H-SAM, biotinylated peptide substrate, Flashplate)
# Details: IC50 values are an average of n = 1 to n = 50; read-out: SMYD2 Biochem IC50 (μM)*
# Method in brief: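 Full-length His/FLAG-tagged SMYD2 expressed in Sf9 cells with tag cleaved, 1.5 nM, pre-incubated 30 min at room temperature with compound, then 10 nM 3H-SAM and 60 nM biotinylated peptide added. Buffer 20 mM Bicine pH 7.6, 1 mM TCEP, 0.005% BSG, 0.002% Tween20, 2% DMSO. Stopped with 600 uM cold SAM; 3H-peptide captured on streptavidin Flashplate; IC50 by curve fit.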
# T1 sequence (Q9NRG4 whole entry): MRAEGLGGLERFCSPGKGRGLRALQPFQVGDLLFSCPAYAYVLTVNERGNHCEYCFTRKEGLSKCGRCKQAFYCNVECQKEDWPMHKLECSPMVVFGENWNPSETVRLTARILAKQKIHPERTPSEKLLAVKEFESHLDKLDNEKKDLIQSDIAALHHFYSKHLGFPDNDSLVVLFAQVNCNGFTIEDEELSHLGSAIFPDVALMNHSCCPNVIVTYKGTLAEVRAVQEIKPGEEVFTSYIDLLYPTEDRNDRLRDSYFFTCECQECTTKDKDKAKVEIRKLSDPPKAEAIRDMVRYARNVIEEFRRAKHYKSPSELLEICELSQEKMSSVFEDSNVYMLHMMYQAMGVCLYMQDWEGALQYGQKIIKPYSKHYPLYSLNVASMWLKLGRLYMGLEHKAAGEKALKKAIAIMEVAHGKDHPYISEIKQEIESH
row,SMILES,IC50 [µM]
1,"CC(C)N1C[C@@H](C)[C@H](NC(=O)c2cc(C3CC3)on2)C1 (racemic) [compound 191, (±)-trans-5-cyclopropyl-N-[4-methyl-1-(propan-2-yl)pyrrolidin-3-yl]-1,2-oxazole-3-carboxamide]",40.3
2,"C[C@H]1CN(Cc2ccccc2)C[C@H]1NC(=O)c1cc(C2CC2)on1 (racemic) [compound 116, (±)-cis-N-([1-benzyl-4-methylpyrrolidin-3-yl)-5-cyclopropyl-1,2-oxazole-3-carboxamide]",4.2
3,"Cc1nc[nH]c1CN1C[C@@H](C)[C@H](NC(=O)c2cc(C3CC3)on2)C1 (racemic) [compound 173, (±)-trans-5-cyclopropyl-N-[4-methyl-1-[(4-methyl-1H-imidazol-5-yl)methyl]pyrrolidin-3-yl]-1,2-oxazole-3-carboxamide]",> 50
4,"C[C@@H]1CN(Cc2cc([N+](=O)[O-])ccc2F)C[C@H]1NC(=O)c1cc(C2CC2)on1 (racemic) [compound 179, (±)-trans-5-cyclopropyl-N-[1-[(2-fluoro-5-nitrophenyl)methyl]-4-methylpyrrolidin-3-yl]-1,2-oxazole-3-carboxamide]",> 50
5,"CC(C)N1C[C@H](C)[C@H](NC(=O)c2cc(C3(C)CC3)on2)C1 (racemic) [compound 217, (±)-cis-N-[4-methyl-1-(propan-2-yl)pyrrolidin-3-yl]-5-(1-methyl-cyclopropyl)-1,2-oxazole-3-carboxamide]",22.3
6,"CCC[C@H]1CN(C(C)C)C[C@@H]1NC(=O)c1cc(C2CC2)on1 (racemic) [compound 151, (±)-trans-5-cyclopropyl-N-[1-(propan-2-yl)-4-propylpyrrolidin-3-yl]-1,2-oxazole-3-carboxamide]",> 50
7,"COc1ncc(CN2C[C@@H](C)[C@H](NC(=O)c3cc(C4CC4)on3)C2)cc1Br (racemic) [compound 174, (±)-trans-N-[1-[(5-bromo-6-methoxypyridin-3-yl)methyl]-4-methylpyrrolidin-3-yl]-5-cyclopropyl-1,2-oxazole-3-carboxamide]",> 50

# Continued, values first:
row,IC50 [µM],SMILES
1,> 50,"C[C@@H]1CN(c2ccncc2)C[C@H]1NC(=O)c1cc(C2CC2)on1 (racemic) [compound 313, (±)-trans-5-cyclopropyl-N-[4-methyl-1-(pyridin-4-yl)pyrrolidin-3-yl]-1,2-oxazole-3-carboxamide]"
2,> 50,"COc1ccc(N2C[C@@H](C)[C@H](NC(=O)c3cc(C4CC4)on3)C2)cc1 (racemic) [compound 299, (±)-trans-5-cyclopropyl-N-[1-(4-methoxyphenyl)-4-methylpyrrolidin-3-yl]-1,2-oxazole-3-carboxamide]"
3,> 50,"C[C@H]1CN(c2cccc(Cl)c2)C[C@H]1NC(=O)c1cc(C2CC2)on1 (racemic) [compound 307, (±)-cis-N-[1-(3-chlorophenyl)-4-methylpyrrolidin-3-yl]-5-cyclopropyl-1,2-oxazole-3-carboxamide]"
4,4.64,"C[C@H]1CN(Cc2ccc(Cl)cc2Cl)C[C@H]1NC(=O)c1cc(C2CC2)on1 (racemic) [compound 321, (±)-cis-5-cyclopropyl-N-{1-[(2,4-dichloro-phenyl)methyl]-4-methylpyrrolidin-3-yl}-1,2-oxazole-3-carboxamide]"
5,> 50,"CC(C)N1C[C@@H](C)[C@H](NC(=O)c2cc(C3CCC3)on2)C1 (racemic) [compound 249, (±)-trans-5-cyclobutyl-N-[4-methyl-1-(propan-2-yl)pyrrolidin-3-yl]-1,2-oxazole-3-carboxamide]"
6,9.34,"C[C@H]1CN(Cc2c[nH]c3cc(Cl)ccc23)C[C@H]1NC(=O)c1cc(C2CC2)on1 (racemic) [compound 324, (±)-cis-N-{1-[(6-chloro-1H-indol-3-yl)methyl]-4-methylpyrrolidin-3-yl}-5-cyclopropyl-1,2-oxazole-3-carboxamide]"
7,> 50,"C[C@H]1CN(c2ncccn2)C[C@H]1NC(=O)c1cc(C2CC2)on1 (racemic) [compound 339, (±)-cis-5-cyclopropyl-N-[4-methyl-1-(pyrimidin-2-yl)pyrrolidin-3-yl]-1,2-oxazole-3-carboxamide]"
8,> 50,"CN1C[C@@H](C(F)(F)F)[C@H](NC(=O)c2cc(C3CC3)on2)C1 (racemic) [compound 251, (±)-trans-5-cyclopropyl-N-[1-methyl-4-(trifluoro-methyl)pyrrolidin-3-yl]-1,2-oxazole-3-carboxamide]"
9,> 50,"CC(C)N1C[C@H](NC(=O)c2cc(C3CC3)on2)C[C@H]1COCC#CC1CCCCC1 (stereo in doubt) [compound 244, (±)-trans-N-[5-{[(3-cyclo-hexylprop-2-yn-1-yl)oxy]methyl}-1-(propan-2-yl)pyrrolidin-3-yl]-5-cyclopropyl-1,2-oxazole-3-carboxamide]"
10,1.67,"Cc1nn(C)cc1CN1C[C@H](C)[C@H](NC(=O)c2cc(C3CC3)on2)C1 (racemic) [compound 326, (±)-cis-5-cyclopropyl-N-{1-[(1,3-dimethyl-1H-pyrazol-4-yl)methyl]-4-methylpyrrolidin-3-yl}-1,2-oxazole-3-carboxamide]"
11,37.4,"CC(C)[C@@H]1CN(C)C[C@@H]1NC(=O)c1cc(C2CC2)on1 (racemic) [compound 218, (±)-cis-5-cyclopropyl-N-[1-methyl-4-(propan-2-yl)pyrrolidin-3-yl]-1,2-oxazole-3-carboxamide]"
12,12.3,"C[C@H]1CN(Cc2cccc3cccnc23)C[C@H]1NC(=O)c1cc(C2CC2)on1 (racemic) [compound 266, (±)-cis-5-cyclopropyl-N-[4-methyl-1-(quinolin-8-ylmethyl)pyrrolidin-3-yl]-1,2-oxazole-3-carboxamide]"
13,> 50,"C[C@@H]1CN(CC2CCNCC2)C[C@H]1NC(=O)c1cc(C2CC2)on1 (racemic) [compound 256, (±)-trans-5-cyclopropyl-N-[4-methyl-1-(piperidin-4-ylmethyl)pyrrolidin-3-yl]-1,2-oxazole-3-carboxamide]"

# Same assay, conditions: Table 1; average of n = 1 to n = 50; read-out: SMYD2 Biochem IC50
row,IC50 [µM],SMILES
1,8.46,"O=C(N[C@@H]1CN(C2CC2)C[C@@H]1CO)c1cc(C2CC2)on1 (racemic) [Cpd. No. 48, (±)-cis-5-cyclopropyl-N-(1-cyclopropyl-4-(hydroxymethyl)pyrrolidin-3-yl)isoxazole-3-carboxamide]"
2,15.4,"C[C@H]1CNC[C@H]1NC(=O)c1cc(C2CC2)on1 (racemic) [compound 38, (±)-cis-5-cyclopropyl-N-(4-methylpyrrolidin-3-yl)isoxazole-3-carboxamide]"
3,> 50,"C[C@H]1CN(C2CC2)C[C@H]1NC(=O)c1cc(C2CCCC2)on1 (racemic) [compound 54, (±)-cis-5-cyclopentyl-N-(1-cyclopropyl-4-methylpyrrolidin-3-yl)isoxazole-3-carboxamide]"

# Same assay, conditions: Table 2; average of n = 1 to n = 50; read-out: SMYD2 Biochem IC50
row,IC50 [µM],SMILES
1,22.6,"C[C@H]1CN(Cc2ccncc2)C[C@H]1NC(=O)c1cc(C2CC2)on1 (racemic) [compound 108, (±)-cis-5-cyclopropyl-N-(4-methyl-1-(pyridin-4-ylmethyl)pyrrolidin-3-yl)isoxazole-3-carboxamide]"
2,> 50,"C[C@H]1C[C@@H](NC(=O)c2cc(C3CC3)on2)CN1 (racemic) [compound 63, (±)-cis 5-cyclopropyl-N-(5-methylpyrrolidin-3-yl)isoxazole-3-carboxamide]"
